Key:
[1] = tested on: U87MG; experiment: Cell survival (cell-killing effect) at different radioconcentrations; format: cell-based
Method: (§1) The capability resulted improved at a radioconcentration higher than 925 MBq/mL compared to lower concentrations. This is the first time that the impact of the drug radioconcentration has been correlated to the cell-killing effect for the translation to humans. The inventor performed internalization and survival studies on different cancer cell lines (U87MG [glioblastoma], PC-3[prostate cancer], CAMA1 [breast cancer], C8161[melanoma], HT-29[colorectal cancer]), A549 [lung cancer] applying the same amount (dose) of radioactivity (eg. 10 MBq), but at different radioconcentrations, e.g. 2,775 MBq/mL vs. 1,850 MBq/mL, vs. 925MBq/mL.
(§2) This effect of the radioconcentration could have a great impact on patients for the optimization of treatment. In fact, in consideration of the mechanism through which ^64Cu reaches the tumor cell, the different radioconcentrations, that is to say “the number of nuclear disintegrations per unit time in a given amount of the preparation”, can influence the biodistribution in vivo. […]
Survival curve of U87MG treated with the same dosage range but at three different concentrations C1=925 MBq/mL, C2=1,850 MBq/mL, C3=2,775 MBq/mL. Value are expressed as mean ±SEM. […]

[2] = tested on: PCa spheroids (derived from 22RV1, DU145, and LNCaP cells); settings: in vitro; cited from earlier work
[3] = Biodistribution, pharmacokinetics, dosimetry and safety in glioblastoma patients; format: in vivo, human
Method: Six glioblastoma patients were evaluated for safety profile and the study of biodistribution was conducted including evaluation of PET/CT scans after first daily dose administration of radiopharmaceutical composition having a radioconcentration of 2,775 MBq/mL (day 0), at different time points 1 h, 4 h, 24 h, 48 h after injection and pharmacokinetic (PK) radioactivity on blood samples at different time points of administration.

[4] = tested on: U-87 GM cells; settings: nude mice implanted with U-87 GM cells; cited from earlier work
[5] = tested on: glioblastoma; experiment: Response to 64CuCl2 treatment in glioblastoma patients (MRI, RANO criteria); format: in vivo, human
Method: A glioblastoma patient of 70 kg that belongs to the class of recurrent glioblastoma. The patient underwent surgery, radiotherapy and chemotherapy and after that experienced recurrence. Standard treatment are not effective in this setting therefore the patient received a diagnostic dose of ^64CuCl2 equal to 925 MBq. After 1 h from administration a PET/CT scan is performed. The patient resulted positive for copper lesion at the diagnostic dose and started treatment
The treatment with ^64CuCl2 (2,775 MBq/mL) for intravenous use by injection followed this scheme and the patient received once a week: • 1st dose=4,810 MBq, 2nd dose=4,810 MBq, 3rd dose=4,810 MBq, 4th dose=4,810 MBq, 5th dose=4,810 MBq, 6th dose=4,810 MBq, 7th dose=4,810 MBq
The patient (71 Kg) underwent surgery, radiotherapy and chemotherapy and after that experienced recurrence. Standard treatments are not effective in this setting therefore the patient received a diagnostic dose of ^64CuCl2 equal to 925 MBq. After 1 h from administration a PET/CT scan is performed. The patient resulted positive for copper lesion at the diagnostic dose and started treatment (^64CuCl2 277 MBq/mL for intravenous by infusion).
The treatment followed this scheme and the patient received once a week: • 1st dose=1,850 MBq, 2nd dose=2,460 MBq, 3rd dose=2,922 MBq, 4th dose=3,292 MBq, 5th dose=3,606 MBq, 6th dose=3,865 MBq, 7th dose=4,068 MBq.
The phase I clinical trial on glioblastoma is the first study evaluating preliminary efficacy of ^64CuCl2 2,775 MBq/mL as therapeutic agent. This determination was performed on 10 patients, at the end of the 7th therapy dose, at 90th day (after 3 months of the last treatment) and whenever possible at 180th day to obtain a wider evaluation of the disease status. Data cut-off was performed after 5 patients. The response to treatment, in term of anti-tumor activity of ^64CuCl2, was measured by MRI, assessed according to the RANO criteria (Response Assessment in Neuro-Oncology, see Wen PY et al.) and defined as complete response (disappearance of tumor) partial response (reduction) and stable disease (non-progression of GBM). Among these patients 4 resulted responders and 1 non-responder. […] Tumor volume reduction ≥50% was also shown in two cases after three months from the last treatment, and in one patient after 6 months from the last treatment.

[6] = tested on: prostate cancer; experiment: Response to 64CuCl2 treatment in prostate cancer patients (PET/CT); format: in vivo, human
Method: The patient at initial diagnosis had local tumor, and after surgery (radical prostatectomy) they underwent radiotherapy and chemotherapy. However, they experienced local recurrence plus a bone metastatic lesion. After receiving all standard treatments, the patient received a diagnostic dose of ^64CuCl2 equal to 925 MBq. After 1 h from administration a PET/CT scan is performed. The patient resulted positive for copper lesion at the diagnostic dose and started treatment. […] The PET/CT acquired the same day of the 4th therapeutic administration and the PET/CT acquired before treatment beginning were analyzed by two independent observers (a third observer expressed another evaluation only in case of discrepancies).

[7] = tested on: Human GBM cell lines (LI) PARI, ADF and T98G; settings: time and dose dependent; cited from earlier work
[8] = tested on: 5 human neoplastic cell lines (ovarian cancer, head and neck, neuroendocrine lung carcinoma, colorectal cancer, glioblastoma); settings: microPET after administration of 64CuCl2; cited from earlier work
[9] = tested on: B16F10 or A375M tumors; settings: vs control group, cited from earlier work
[10] = Effective dose of the diagnostic 64CuCl2 administration; format: in vivo, human; settings: diagnostic dose 370-925 MBq
From the text: Patients with tumor received ^64CuCl2 at a dose between 370-925 MBq to ensure appropriate image quality. The mean effective dose for ^64CuCl2 calculated is 20 mSv per exam, which is aligned with the ones from the conventional PET imaging.

[11] = tested on: U87MG, PC-3, CAMA1, C8161, HT-29, A549 cancer cell lines; experiment: 64CuCl2 tumor cell uptake (internalization) at different radioconcentrations; format: cell-based; settings: 4 h after treatment; same dose of radioactivity; higher radioconcentrations (2,775 and 1,850 MBq/mL) compared to the lowest (925 MBq/mL); all the cell lines
Method: as §1, §2
FIG. 1—Impact of different radioconcentrations on tumor cell uptake ^64CuCl2 cell uptake in different tumor cell lines U87MG, PC-3, CAMA1, C8161, HT-29. Cell uptake was evaluated treating cells at the same dosage (15 MBq/dish 100 mm), but at three different radioconcentrations C1=925 MBq/mL, C2=1,850 MBq/mL, C3=2,775 MBq/mL. Values are expressed as mean ±SEM.

[12] = six glioblastoma patients, 2,775 MBq/mL
[13] = phase I glioblastoma, 2,775 MBq/mL, data cut-off after 5 patients, 7 treatments

Compound: [Cl][Cu][Cl] [^64CuCl2, Copper Chloride]
- cell-killing effect ([1]; 24 h after treatment, 2,775 MBq/mL, U87MG survival curve): increased cell-killing effect
- improved cell killing-effect compared to C1 ([1]; C3=2,775 MBq/mL vs C1=925 MBq/mL at D4=1.7 MBq and D5=3.4 MBq): about 30%
- growth of spheroids [2]: reduce their growth
- treatment related toxicities associated to liver/kidney and red marrow distribution ([3]; glioblastoma patients): No treatment related toxicities were registered
- biodistribution (organ uptake) [3, 12]: significant uptake in the liver (as expected) followed by kidney and L2-L4 regions
- effective dose, median [3, 12]: 26.08 mSv
- 64Cu uptake over time (pharmacokinetic profile) ([3]; six glioblastoma patients, 2,775 MBq/mL, PET/CT 1 h, 4 h, 24 h, 48 h after injection): increases up to 4 h post-injection and decreased thereafter
- tumor volume, in some cases [4]: complete regression
- patients with tumor volume reduction ≥50% ([5]; 6 months from the last treatment): one
- patients with reduction of tumor volume ≥50% compared to baseline MRI ([5]; day 42 evaluation): one
- patients with stable disease ([5]; day 42 evaluation, responder patients): 3 patients
- patients with stable disease ([5]; day 90): 2 patients
- number of non-responders [5, 13]: 1
- number of responders [5, 13]: 4
- response to the treatment ([5]; recurrent glioblastoma patient (71 Kg), 277 MBq/mL i.v. infusion, 7 increasing doses 1,850-4,068 MBq once a week): responder
- cases with tumor volume reduction ≥50% ([5]; three months from the last treatment): two
- patients with stable disease ([5]; up to six months after treatment): one
- volume of lesions (PET/CT) ([6]; five prostate cancer patients, after 4 administrations, 2,775 MBq/mL solution for injection): a reduction or a non-progression
- tumor lesions on the bone, PET/CT before and after treatment ([6]; metastatic prostate cancer patient, 2,775 MBq/mL injection, 7 doses of 4,810 MBq once a week): reduction of the tumor lesions on the bone
- modulation of cell viability [7]: dose dependent
- uptake of 64Cu2+ by neoplastic tissues [8]: significant uptake
- tumor growth ([9]; B16F10 and A375M models, one dose about 74 MBq): much slower than that of the control group
- survival ([9]; mice bearing B16F10 or A375M tumors): significantly improved survival
- mean effective dose per exam [10]: 20 mSv
- cell uptake [11]: significantly greater
